Laboratory results from patent US20240369550A1, “MACROMOLECULAR STRUCTURES AND USES THEREOF” (The Regents of the University of Michigan, priority 2015, published 2024).
Entries after “also recorded” stand apart in the source; their conditions may differ.

Test system: DNase I
Test: DNase I-mediated degradation of DNA-histone structures (degradation modifier assay)
Format: biochemical, bovine
Settings: LL-37 approx. 0.5, 5 or 50 μM; total Sytox Green fluorescence; relative to structures lacking LL-37 treated with DNase I
Procedure: Time-lapse microscopy and microplate photometry were utilized to measure the overall rate of degradation, and DNA-histone structures were treated with multiple concentrations of DNase I to verify the dose-dependency of this rate (FIG. 3).
1 mg/ml DNase I (MW 31 kDa) was prepared in 10 mM Tris-HCl, 10 mM CaCl2, pH 7.5 (Tris buffer). Each well containing DNA-histone structures (as previously described) was washed 3 times with 150 μl of Tris buffer, and all solutions within each well were removed. 200 μL of the DNase I solution was then added to each well, and time-lapse fluorescent images of each well were acquired.
1 mg/ml LL-37 (MW 4.49 kDa) and 2 mg/ml histones (both in PBS) were added to a solution of 20% w/w PEG/PBS such that the final concentration of histones was approximately 1 mg/ml, and the final concentration of LL-37 in each solution was approximately 0.5 μM, 5 μM, or 50 μM. […]
After complete removal of the solutions in each well, 150 μL of DNase I solution was added to each well. Time-lapse images or measurements of total fluorescence were acquired at a rate of one measurement per minute.

## LL-37
  overall rate of DNase I-mediated degradation of DNA-histone structures: dose-dependent decrease in the overall rate of DNase I-mediated degradation; also recorded: inhibit the rate of DNase I mediated degradation
